Consider twelve compounds from US10080739B2, “Aryl imidazoles and their use as anti-cancer agents” (Aptose Biosciences Inc., priority 2003, dated 2018).

The subject of data set [1] is human non-small cell lung cancer cells (H460). As to the kind of experiment: XTT cell proliferation assay, H460 cells, 48 h. Type of data set: cell-based. The following applies: NCI-H460 cells, 48 h, XTT, read-out: % Survival. As to the method:
(§1) Selected compounds of Formula I were tested for anti-cancer activity in vitro using a human colon carcinoma cells (HT-29) and human non-small cell lung cancer cells (H460). The cells were maintained in α-MEM medium (Wisent, St-Bruno, Qc) supplemented with 10% FBS, and grown at 37° C. in an atmosphere of 5% CO2. Cells were transferred onto 150 mm tissue culture plates and grown until sub-confluency (70-80%) prior to their use.
(§2) The anti-cancer activity in vitro was evaluated by a cell proliferation assay based on the ability of live cells to reduce the tetrazolium salt XTT to orange coloured compounds of formazan (XTT cell proliferation kit II, Roche Applied Science, Montreal, QC).
(§3) Approximately 4×10^3 colon cancer cells (HT-29) or 2×10^3 non-small cell lung cancer cells (NCI-H460) in 100 μl of complete culture medium were plated onto 96-well microtiter plates and incubated overnight at 37° C. The medium was then removed by inverting the plate and patting on a sterile absorbent cloth. Fifty μl of medium containing the test compound at either 25 or 100 μM, were added to the wells containing cells and incubated at 37° C. in an atmosphere of 5% CO2 for 48 h. Following incubation, 25 μl of an XTT reaction mixture (XTT at a final concentration of 0.3 mg/ml) were added to each well and the plates were incubated for a further 4 h. The absorbance of each sample was then determined at a wavelength of 490 nm/650 nm as reference. Each compound was tested in duplicate and the results are reported as averages.

The test system of data set [2] is human colon carcinoma cells (HT-29). In words: XTT cell proliferation assay, HT-29 cells, 48 h. The format is cell-based. The following applies: read-out: % Survival. As to the method: as §1, §2, §3
On the technique in general: Tetrazolium assays rely on reduction of a dye to a coloured formazan, in cell work by metabolically active cells.

In data set [3] the test system is panel of 60 human cancer cell lines. As to the kind of experiment: NCI/DTP in vitro anticancer screen, 60 cell lines. The format is cell-based. The following applies: NCI panel of 60 human cancer cell lines, value per compound (FIG. 10A). As to the method:
The twenty-three compounds of Formula I shown below were evaluated for their antiproliferative effects in a panel of 60 human cancer cell lines as part of the in vitro anticancer screening services provided by the DTP (Developmental Therapeutics Program) of the US National Cancer Institute (NCI) U.S. National Cancer Institute (NCI) of the National Institutes of Health (NIH) in […], Md.
The NCI conducts a standard 48/72 hour 60 cell line assay and an in vitro time course assay as described in Alley et al. (Cancer Res (1988) 48:589). In the standard 60 cell line assay, a minimum of 5 concentrations of the test compound are tested at 10-fold dilutions against 60 cell lines and cell growth is assayed at 48 and 72 hours using a sulphorhodamine B assay. For the time course analysis, tumour cells are treated with the test compound at various time points, then washed and grown in medium free of the test compound until the end of the experiment at 144 hrs. This assay employs 20% FBS to better approximate the minimum c×t (concentrations and times) test compound exposure conditions that are required to achieve activity in vivo. Cell growth is quantified by an MTT assay (similar to the XTT assay described above) and the concentration of the test compound required for growth inhibition is determined. […]

The conditions of data set [4]: NCI/DTP data; cited from earlier work.
The test system of data set [5] is Saccharmyces cerevisiae strains that have mutations in genes related to cell cycle control and DNA repair damage. The following applies: panel of six yeast strains, single concentration; NCI/DTP data; cited from earlier work.
The subject of data set [6] is HT29 colon adenocarcinoma cells. As to the kind of experiment: morphological changes (vacuoles), HT29. The format is cell-based, human. The following applies: treatment for 24 hours. The text has this: These vacuoles are not formed in DMSO- or doxorubicin-treated cells. Moreover, the nuclear membrane is no longer evident in the phase-contrast images of cells treated with compound 45, even though the nucleus is still intact, as shown by DAPI staining.

One may read the melting point as the temperature, or range, at which the solid turns liquid. The compound `Cc1[nH]c2ccccc2c1-c1nc(-c2ccc(Cl)cc2)c(-c2ccc(Cl)cc2)[nH]1` [Compound 19] had a melting point of 165 to 167 °C. Moreover, in data set [1] (25 μM compound), the viability at 25 µM was determined as 89.2%. In addition, the viability at 100 µM in data set [1] (100 μM compound) came to 27.3%. Besides, the viability at 25 µM in data set [2] (25 μM compound) stood at 106%. Moreover, in data set [2] (100 μM compound), the viability at 100 µM was found to be 37.1%.

On to `Cc1[nH]c2ccccc2c1-c1nc2c3cccnc3c3ncccc3c2[nH]1` [Compound 90], for which the “GI50 (growth inhibition by 50%)” value in data set [3] is listed as “most effective compound”.

Take `COc1ccc(-c2nc(-c3c[nH]c4ccc(Br)cc34)[nH]c2-c2ccccc2)cc1OC` [Compound 96]: the melting point was 265 to 266 °C.

`Oc1ccc(-c2[nH]c(-c3c[nH]c4ccc(Br)cc34)nc2-c2ccccc2)cc1O` [Compound 140] came in with a melting point of 210 to 215 °C.

With `COc1ccc(-c2nc(-c3c[nH]c4ccccc34)[nH]c2-c2ccccc2)cc1OC` [Compound 152], the melting point lay in the range of 258 to 259 °C.

Consider `Cc1[nH]c2ccccc2c1-c1nc(-c2cccc3ccccc23)c(-c2ccccc2)[nH]1` [Compound 180], for which the melting point is 239 to 240 °C.

`Brc1ccc2[nH]cc(-c3nc(-c4cccc5ccccc45)c(-c4ccccc4)[nH]3)c2c1` [Compound 181] had a melting point of 308 to 310 °C.

With `Nc1ccc(-c2[nH]c(-c3c[nH]c4ccccc34)nc2-c2ccccc2)cc1` [Compound 182], the melting point was 264 to 265 °C.

As to `c1ccc2c(-c3nc4ccccc4[nH]3)cccc2c1` [Compound 144033], the “activity in the In Vivo Anticancer Drug Screen” value in data set [4] was “None of these three compounds showed any activity”.

Turning to `CN(C)c1ccc(-c2nc3c4ccccc4c4ccccc4c3[nH]2)cc1` [NCI #322334], the “activity in the In Vivo Anticancer Drug Screen” value in data set [4] is listed as “None of these three compounds showed any activity”.

Take `Cc1ccccc1-c1nc2c3ccccc3c3ccccc3c2[nH]1` [NCI #338970]: the “activity in Stage0 testing in the Yeast Anticancer Drug Screen” value in data set [5] is “active”. Moreover, the “activity in the In Vivo Anticancer Drug Screen” value in data set [4] is “None of these three compounds showed any activity”.

Take `COc1cccc2c1C(=O)c1c(O)c3c(c(O)c1C2=O)C[C@@](O)(C(=O)CO)C[C@@H]3O[C@H]1C[C@H](N)[C@H](O)[C@H](C)O1` [doxorubicin, reference compound]: the formation of vacuoles entry in data set [6] was “not formed”.
